Results on 17 compounds are retold here after patent US5641772A, “Condensed diazepinones, processes for preparing them and agents containing these compounds for treating diseases of the central nervous system and for promoting cerebral blood circulation” (Dr. Karl Thomae GmbH, priority 1991, dated 1997).

The target in experiment [1] is T1, M1 -receptors of the cortex (Rattus norvegicus, UniProt P08482).
T1 construct: The cerebral cortex, heart and salivary glands were removed, washed and homogenised; from tissue; host or cells: rat cerebral cortex homogenate (Wistar, Chbb: THOM)
T1 sequence (P08482 1-460): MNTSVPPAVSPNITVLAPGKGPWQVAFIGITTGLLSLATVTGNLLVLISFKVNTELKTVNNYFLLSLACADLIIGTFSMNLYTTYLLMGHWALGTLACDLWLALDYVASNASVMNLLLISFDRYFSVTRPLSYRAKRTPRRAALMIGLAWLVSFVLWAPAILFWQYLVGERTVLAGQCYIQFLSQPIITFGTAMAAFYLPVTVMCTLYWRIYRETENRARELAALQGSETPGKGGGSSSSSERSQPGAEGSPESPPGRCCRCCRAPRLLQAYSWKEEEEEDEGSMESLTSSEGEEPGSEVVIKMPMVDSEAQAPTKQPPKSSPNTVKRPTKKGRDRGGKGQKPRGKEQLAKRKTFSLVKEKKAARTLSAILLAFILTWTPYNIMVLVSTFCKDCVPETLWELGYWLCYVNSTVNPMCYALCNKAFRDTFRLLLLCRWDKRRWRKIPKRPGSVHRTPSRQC
Kind of experiment: Receptor binding test, [3H]pirenzepine, cerebral cortex (M1). Set-up: species or system Male Wistar rats. The note with it: in vitro, 1 nM [3H]pirenzepine, 90 minutes.

Experiment [2] deals with T2, M3 (Submandibular gland) muscarinic receptors (Rattus norvegicus, UniProt P08483).
T2 construct: The cerebral cortex, heart and salivary glands were removed, washed and homogenised; from tissue; host or cells: rat salivary (submandibular) gland homogenate (Wistar, Chbb: THOM)
In words: Receptor binding test, [3H]NMS, salivary (submandibular) gland (M3). Set-up: species or system Male Wistar rats. Particulars: in vitro, 0.3 nM [3H]NMS, 40 minutes.

In experiment [3] the target is T3, M2 (Heart) muscarinic receptors (Rattus norvegicus, UniProt P10980).
T3 construct: The cerebral cortex, heart and salivary glands were removed, washed and homogenised; from tissue; host or cells: rat heart homogenate (Wistar, Chbb: THOM)
T3 sequence (P10980 1-466): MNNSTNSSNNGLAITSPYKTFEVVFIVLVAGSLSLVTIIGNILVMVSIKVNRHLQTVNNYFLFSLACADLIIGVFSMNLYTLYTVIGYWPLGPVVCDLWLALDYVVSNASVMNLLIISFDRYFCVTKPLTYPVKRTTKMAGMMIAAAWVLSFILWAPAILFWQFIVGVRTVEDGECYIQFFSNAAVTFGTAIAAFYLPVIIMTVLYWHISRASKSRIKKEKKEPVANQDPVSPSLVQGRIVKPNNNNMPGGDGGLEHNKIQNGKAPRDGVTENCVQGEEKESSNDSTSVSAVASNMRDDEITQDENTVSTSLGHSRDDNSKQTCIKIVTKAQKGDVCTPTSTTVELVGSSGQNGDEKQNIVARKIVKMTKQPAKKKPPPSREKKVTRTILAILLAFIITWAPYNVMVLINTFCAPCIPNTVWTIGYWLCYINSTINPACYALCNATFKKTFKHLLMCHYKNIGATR
In words: Receptor binding test, [3H]NMS, heart (M2). The arrangement: species or system Male Wistar rats. The note with it: for Ki: in vitro, rat heart, 0.3 nM [3H]NMS, 40 minutes; for Selectivity ratio (M1 /M2): ratio of Ki M1 (cortex) to Ki M2 (heart).

Experiment [4] concerns learning-impaired old rats. In words: Effect on the memory in the Morris water maze, learning-impaired 24 months old rats. In kind it is in vivo, rat. The note with it: 0.2 mg/kg s.c. As to the method: The tests were carried out using the water maze described by R. G. M. Morris in Learn Motive 12:239-249 (1981) using the test method described therein.
On the first day, rats which were 24 months old and therefore learning-impaired (n=7 per group) were given 0.2 mg/kg of compound D by subcutaneous route whilst another group of these animals were given physiological saline solution (s.c.).

Experiment [5] relates to arecoline-induced increase in blood pressure. In words: Arecoline test: CNS-penetration, in vivo (rat), reduction in the arecoline-induced increase in blood pressure. Particulars: i.v. As for the experimental part:
Cerebroavailable antimuscarinics block this central effect. […] The trachea is incubated, the animals are respirated with an air/oxygen mixture (80 breaths per minute). The blood pressure is recorded after canulation of the carotid artery by means of a pressure recorder (Bell and Howell Type 4-327-I). The test substances are administered through the jugular vein ([…]). […] The arecoline is administered (in doses of 0.3 mg/kg) at 15 minute intervals. After 2 comparison values, the test substance is injected in increasing doses 5 minutes before the next administration of arecoline. The results obtained were compared with the average starting values and determined as the percentage inhibition.

Experiment [6] relates to learning ability and memory performance. Particulars: Hunter et al., Sutherland et al., Wishaw; cited from earlier work.

One may read the Ki as the dissociation constant of the complex between target and ligand, obtained from inhibition or displacement.

T2 sequence (P08483 whole entry): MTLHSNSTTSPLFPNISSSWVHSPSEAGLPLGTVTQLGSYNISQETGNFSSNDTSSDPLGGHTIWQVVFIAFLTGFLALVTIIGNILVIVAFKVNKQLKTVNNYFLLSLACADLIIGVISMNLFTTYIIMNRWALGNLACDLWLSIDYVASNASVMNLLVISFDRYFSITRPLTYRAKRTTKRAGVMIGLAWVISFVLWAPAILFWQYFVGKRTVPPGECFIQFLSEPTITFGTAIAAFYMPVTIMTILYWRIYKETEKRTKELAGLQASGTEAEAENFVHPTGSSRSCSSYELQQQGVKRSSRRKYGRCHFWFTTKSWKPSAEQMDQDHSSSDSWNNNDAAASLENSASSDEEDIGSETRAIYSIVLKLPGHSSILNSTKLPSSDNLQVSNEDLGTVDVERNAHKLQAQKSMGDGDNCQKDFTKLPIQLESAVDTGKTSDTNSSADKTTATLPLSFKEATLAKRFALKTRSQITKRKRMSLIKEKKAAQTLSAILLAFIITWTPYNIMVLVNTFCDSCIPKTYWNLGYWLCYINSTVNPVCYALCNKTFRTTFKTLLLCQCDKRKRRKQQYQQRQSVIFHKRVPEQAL

In the case of `CCN(CC)CC1CCCCN1CC(=O)N1c2cc(Cl)ccc2C(=O)Nc2cccnc21` (racemic) [Substance K, (±)-9-chloro-11-[[2-[(diethylamino)methyl]-1-piperidinyl]-acetyl]-5,11-dihydro-6H-pyrido[2,3-b]-[1,4]benzodiazepin-6-one], the figures for the Ki in experiment [1], in experiment [2] and in experiment [3] were 126 nM, 759 nM and 25 nM, respectively.

As to `CCN(CCCC1CCN(CC(=O)N2c3ccccc3C(=O)Nc3cccnc32)CC1)C(=O)C(C)(C)CC` [Substance A, 5,11-dihydro-11-[[4-[3-[(2,2-dimethyl-1-oxobutyl]-ethylamino]-propyl]-1-piperidinyl]acetyl]-6H-pyrido[2,3-b][1,4]benzodiazepin-6-one], the “Selectivity ratio (M1 /M2)” value in experiment [3] worked out at 20.

Turning to `CCCC(C)(C)C(=O)N(CC)CCCC1CCN(CC(=O)N2c3ccccc3C(=O)Nc3cccnc32)CC1` [Substance B, 5,11-dihydro-[[4-[3-[(2,2-dimethyl-1-oxopentyl)-ethylamino]-propyl]-1-piperidinyl]acetyl]-6H-pyrido[2,3-b][1,4]benzodiazepin-6-one], the “Selectivity ratio (M1 /M2)” value in experiment [3] worked out at 10.

As for `CCCC(C)(C)C(=O)N(CC)CCCCC1CCN(CC(=O)N2c3ccccc3C(=O)Nc3cccnc32)CC1` [Substance C, 5,11-dihydro-11-[[4-[4-[(2,2-dimethyl-1-oxopentyl)-ethylamino]butyl]-1-piperidinyl]acetyl]-6H-pyrido[2,3-b][1,4]benzodiazepin-6-one], the “Selectivity ratio (M1 /M2)” value in experiment [3] was 13.

Turning to `CCCC(C)(C)C(=O)N(CC)CCCC1CCN(CC(=O)N2c3ccc(Cl)cc3C(=O)Nc3cccnc32)CC1` [Substance D, 5,11-dihydro-8-chloro-11-[[4-[3-[(2,2-dimethyl-1-oxopentyl)-ethylamino]propyl]-1-piperidinyl]-acetyl]-6H-pyrido[2,3-b][1,4]benzodiazepin-6-one], the “memory performance versus young control rats” value in experiment [4] (fourth day, 24 months old rats, n=7) was “reached the same level as the control groups of young rats”. In addition, in experiment [4] (observed 4 days, FIG. 1), the “memory performance compared with saline-treated learning-impaired old rats” value was “improved memory performance”. Further, in experiment [4] (second day, 24 months old rats, n=7), the “reduction of latency period in Morris water maze” value is reported as “approximately 50%”. In addition, the “Selectivity ratio (M1 /M2)” value in experiment [3] was found to be 35.

Regarding `CCN(CCCC1CCN(CC(=O)N2c3ccc(C)cc3C(=O)Nc3cccnc32)CC1)C(=O)C(C)(C)C` [Substance E, 5,11-dihydro-8-methyl-11-[[4-[3-[(2,2-dimethyl-1-oxopropyl)-ethylamino]propyl]-1-piperidinyl]acetyl]-6H-pyrido[2,3-b][,1,4]benzodiazepin-6-one], in experiment [3], the “Selectivity ratio (M1 /M2)” value came out at 10.

With `CCN(CCCC1CCN(CC(=O)N2c3ccccc3C(=O)Nc3cccnc32)CC1)C(=O)C(C)(C)C` [Substance F, 5,11-dihydro-11-[[4-[3-[(2,2-dimethyl-1-oxopropyl)-ethylamino]propyl]-1-piperidinyl]acetyl]-6H-pyrido[2,3-b][1,4]benzodiazepin-6-one], the “Selectivity ratio (M1 /M2)” value in experiment [3] turned out to be 14.

`CCN(CCCC1CCN(CC(=O)N2c3ccc(C)cc3C(=O)Nc3cccnc32)CC1)C(=O)C(C)(C)CC` [Substance G, 5,11-dihydro-8-methyl-11-[[4-[3-[(2,2-dimethyl-1-oxobutyl)ethylamino]propyl]-1-piperidinyl]acetyl]-6H-pyrido[2,3-b][1,4]benzodiazepin-6-one]: the “Selectivity ratio (M1 /M2)” value in experiment [3] is listed as 24.

In the case of `CCN(CC)CC1CCCCN1CC(=O)N1c2ccccc2C(=O)Nc2cccnc21` (centres unmarked) [Substance H, 11-[[2-[(diethylamino)methyl]-1-piperidinyl]acetyl]-5,11-dihydro-6H-pyrido[2,3-b][1,4]benzodiazepin-6-one], the figures for the Ki in experiment [1] and in experiment [3] were 500 nM and 79 nM, respectively.

With `O=C1Nc2cccnc2N(C(=O)CCC#CCN2CCCCC2)c2ccccc21` [Substance J, 5,11-dihydro-11-[1-oxo-6-(1-piperidinyl)-4-hexyn-1-yl]-6H-pyrido[2,3-b][1,4]benzodiazepin-6-one], the “Selectivity ratio (M1 /M2)” value in experiment [3] is 6.6.

For the compound `CCCN(CCC)CC1CCCCN1CCNC(=O)N1c2ccccc2C(=O)Nc2cccnc21.CS(=O)(=O)O` (centres unmarked) [Substance L, 5,11-dihydro-11-[[[2-[2-[(dipropylamino)methyl]-1-piperidinyl]ethyl]amino]carbonyl]-6H-pyrido[2,3-b]-[1,4]benzodiazepin-6-one methanesulphonate], the “effect on arecoline-mediated central effects / increase in blood pressure (in words)” value in experiment [5] is recorded as “had no effect on the increase in blood pressure caused by arecoline”.

For the compound `O=C1Nc2cccnc2N(C(=O)N2CCCC(CCCN3CCCCC3)C2)c2ccccc21` (centres unmarked) [Substance M, 5,11-dihydro-11-[[3-[3-(1-piperidinyl)-1-propyl]-1-piperidinyl]carbonyl]-6H-pyrido[2,3-b][1,4]benzo-diazepin-6-one], the “Selectivity ratio (M1 /M2)” value in experiment [3] is 6.5.

Take `Cc1scc2c1N(C(=O)CCC#CCN1CCCCCC1)c1ccccc1NC2=O` [Substance P, 4,9-dihydro-3-methyl-4-[6-(hexahydro-1H-1-azepinyl)-1-oxo-4-hexyn-1-yl]-10H-thieno[3,4-b][1,5]benzodi-azepin-10-one]: in experiment [3], the “Selectivity ratio (M1 /M2)” value came to 4.6.

`CCN(CC)CC1COCCN1CCCC(=O)N1c2ccccc2C(=O)Nc2cccnc21` (centres unmarked) [Substance Q, 11-[4-[3-[(diethylamino)methyl]-4-morpholinyl]-1-oxo-1-butyl]-5,11-dihydro-6H-pyrido[2,3-b][1,4]-benzodiazepin-6-one]: the “Selectivity ratio (M1 /M2)” value in experiment [3] was found to be 2.5.

On to `CN(CCC1CCCN1C)CC(=O)N1c2ccccc2C(=O)Nc2cccnc21` (centres unmarked) [Substance R, 5,11-dihydro-11-[[[2-(1-methyl-2-pyrrolidinyl)-ethyl]-methylamino]acetyl]-6H-pyrido[2,3-b][1,4]-benzodiazepin-6-one], for which, in experiment [3], the “Selectivity ratio (M1 /M2)” value is on record as 2.4.

With `CN(CCC1CCCCCN1C)CC(=O)N1c2ccccc2C(=O)Nc2cccnc21` (centres unmarked) [Substance S, 5,11-dihydro-11-[[[2-(1-methyl-hexahydro-1H-2-azepinyl)-ethyl]methylamino]acetyl]-6H-pyrido[2,3-b][1,4]benzodiazepin-6-one], in experiment [3], the “Selectivity ratio (M1 /M2)” value amounted to 5.3.

As for `CN1CCN(CC(=O)N2c3ccccc3C(=O)Nc3cccnc32)CC1` [pirenzepine], in experiment [6], the “learning ability and memory performance (literature)” value was “deterioration in learning ability and memory performance”.
